Laboratory results taken from article PMC8184619 (Molecular immunology, 2021).

What was measured:
Format in all cases: cell-based
[1] = tested on: SILv44 TCR-transduced CD8+ Jurkat T cells
[2] = tested on: R6C12 TCR-transduced CD8+ Jurkat T cells
[3] = tested on: T4H2 TCR-transduced CD8+ Jurkat T cells

EC50 [1]: 1400 ± 300 nM
EC50 [2]: 11000 ± 3000 nM
EC50 [3]: 300 ± 100 nM
Compound: CC[C@H](C)[C@H](N)C(=O)N[C@@H](CC(C)C)C(=O)N[C@@H](CC(=O)O)C(=O)N[C@@H](CCC(N)=O)C(=O)N[C@H](C(=O)N1CCC[C@H]1C(=O)N[C@@H](Cc1ccccc1)C(=O)N[C@@H](CO)C(=O)N[C@H](C(=O)O)C(C)C)C(C)C [T2Leu]
